Measured values as given in PubChem BioAssay (NCI).
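Dose response: 5 concentrations. Exposure: 48 h. Format: 96-well plates. Endpoint: linear interpolation; highest concentration if not reached. GI50 = concentration required for 50% inhibition of growth. TGI is the concentration that stops growth completely.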

What was measured:
Assay in all cases: NCI tumour cell line growth inhibition, 48 h
MALME-3M melanoma = test system: MALME-3M melanoma
RPMI-8226 leukemia = test system: RPMI-8226 leukemia
SF-268 CNS = test system: SF-268 CNS
HS 578T breast = test system: HS 578T breast
NCI-H226 lung = test system: NCI-H226 lung
A549 NSCLC = test system: A549 NSCLC
NCI-H460 lung = test system: NCI-H460 lung
CCRF-CEM leukemia = test system: CCRF-CEM leukemia
OVCAR-8 ovarian = test system: OVCAR-8 ovarian
NCI-H23 lung = test system: NCI-H23 lung

Row | Structure (SMILES) | GI50 (MALME-3M melanoma) [µM] | TGI (MALME-3M melanoma) [µM] | GI50 (RPMI-8226 leukemia) [µM] | TGI (RPMI-8226 leukemia) [µM] | GI50 (SF-268 CNS) [µM] | TGI (SF-268 CNS) [µM] | GI50 (HS 578T breast) [µM] | TGI (HS 578T breast) [µM] | GI50 (NCI-H226 lung) [µM] | TGI (NCI-H226 lung) [µM] | GI50 (A549 NSCLC) [µM] | TGI (A549 NSCLC) [µM] | GI50 (NCI-H460 lung) [µM] | TGI (NCI-H460 lung) [µM] | GI50 (CCRF-CEM leukemia) [µM] | TGI (CCRF-CEM leukemia) [µM] | GI50 (OVCAR-8 ovarian) [µM] | TGI (OVCAR-8 ovarian) [µM] | GI50 (NCI-H23 lung) [µM] | TGI (NCI-H23 lung) [µM]
1 | C[C@@H](Oc1cc(-n2cnc3ccc(OC[C@@H](O)CO)cc32)sc1C(N)=O)c1ccccc1Cl | 7.14 | > 25 | 1.53 | > 25 | 0.164 | > 25 | 0.171 | 5.31 | 2.82 | > 25 | 0.889 | > 25 | 0.227 | > 25 | 0.0127 | 24.6 | 0.109 | > 25 | 0.14 | > 25
2 | Cc1cc(Cl)cc(Cc2cc(Cl)cc(C)c2O)c1O | 2.35 | 6.86 | 1.58 | 9.35 | 2.9 | 16.8 | 2.55 | 7.75 | 4.17 | 20.1 | 2.91 | 11.1 | 3.14 | 10.5 | 3.08 | 16.1 | 2.1 | 6.16 | 1.9 | 8.09
3 | N#CC1C(=O)NC(c2ccccc2[N+](=O)[O-])c2sc3c(F)cccc3c21 (centres undefined) | 19.5 | 63.7 | 5.67 | > 60.3 | 15.8 | 56.9 | 15.2 | 69.9 | 0.273 | 2.55 | 1.72 | 36.1 | 0.28 | 4.58 | 21.6 | > 87.4 | 9.59 | 80.9 | 8.78 | 45
4 | COC(=O)[C@]12CC[C@@H](C)[C@H](C)[C@@H]1C1=CC[C@@H]3[C@@]4(C)C(C=O)=C[C@@](C)(COC(=O)/C=C/c5ccccc5)[C@@H]4[C@H](O)C[C@@]3(C)[C@]1(C)CC2 | 1.99 | 5.14 | 1.59 | 5.73 | 3.43 | 48.3 | 3.72 | 33.8 | 2.36 | 9.66 | 3.73 | 22 | 2.96 | 10.2 | 2.39 | > 100 | 3.98 | 30.3 | 2.99 | 15.1
5 | COCc1c(-c2ccc(NC(=O)Nc3cc(C(F)(F)F)ccc3F)c(F)c2)c2c(N)ncnn2c1CN1CCOCC1 | 2.72 | > 10 | 1.91 | 7.85 | 1.13 | 5.2 | 0.138 | 0.733 | 0.0747 | 5.25 | 2.53 | > 10 | 2.24 | 9.74 | 1.95 | 7.96 | 2.66 | > 10 | 1.61 | 5.18
6 | COc1ccc2c(c1)C(=O)c1c-2c(Nc2cccc(C(C)=O)c2)nc2ccccc12 | 18 | 48.3 | 17.5 | 70.7 | 36.5 | > 100 | 3.19 | 15.5 | 11.7 | 35.8 | 17.7 | 40.5 | 23.5 | > 100 | > 100 | > 100 | 14.5 | 34.7 | 4.86 | 19.3
7 | C=CCc1c(O)c(C(=O)/C=C/c2ccccc2)c(OC)c2ccoc12 | 5.8 | 20.2 | 1.88 | 6.76 | 2.8 | 10.7 | 3.89 | 33.8 | 1.48 | 3.21 | 4.41 | 22.1 | 2.79 | 10.7 | 2.75 | > 100 | 3.13 | 13.6 | 2.52 | 
8 | CCn1ccc(NS(=O)(=O)c2ccc(N)cc2)nc1=O | > 100 | > 100 | > 100 | > 100 | > 100 | > 100 | 33.8 | > 100 | > 100 | > 100 | > 100 | > 100 | > 100 | > 100 | > 100 | > 100 | > 100 | > 100 | > 100 | > 100
9 | COc1cc(/C=C/C(=O)c2c(C)nc3ccccc3c2C)ccc1OCCCN1CCN(C(=O)c2ccco2)CC1 | 3.43 | 18.2 | 1.92 | 11.9 | 10.9 | 25.8 | 12 | 51.8 | 13.7 | 29.9 | 11.3 | 27.3 | 8.91 | 21.7 | 3 | 17.9 | 8.43 | 42.4 | 6.39 | 24.7
10 | O=C(O)Cc1cccc2c(=O)c3cccc([N+](=O)[O-])c3oc12 |  | > 100 |  | > 100 |  | > 100 |  | > 100 |  | > 100 |  | > 100 |  | > 100 |  | > 100 |  | > 100 |  | > 100
11 | COc1cc2c(cc1C)NC(=O)/C2=C\c1c[nH]c2ccccc12 | 15.3 | 42.3 | 5.95 | 63 | 12 | 36.3 | 14.5 | 47.9 | 15.1 | 41.6 | 28.4 | > 100 | 4.93 | 41.9 | 10.3 | > 100 | 20.3 | 67.2 | 20.2 | 74.6
12 | CN(C)c1ccc2nc(CC(O)(C(F)(F)F)C(F)(F)F)ccc2c1 |  | > 10 |  | > 10 |  | > 10 |  | > 10 |  | > 10 |  | > 10 |  | > 10 |  | > 10 |  | > 10 |  | > 10
13 | O=C(O[C@H]1CCN2C[C@H]3C[C@H](CN4C(=O)CCC[C@H]34)[C@@H]2C1)c1ccc(O)cc1 |  | > 100 |  | > 100 |  | > 100 |  | > 100 |  | > 100 |  | > 100 |  | > 100 |  | > 100 |  | > 100 |  | > 100
14 | O=[N+]([O-])c1cc2c([N+](=O)[O-])cccc2o1 |  | 30.1 |  | 11.4 |  | 31.1 |  | 43.8 |  | 30.4 |  | > 100 |  | > 100 |  | 5.05 |  | 38.8 |  | 37.6
